Experimental data as given in the NIST ThermoML archive (doi:10.1016/j.jct.2014.09.001).
Numbers after ± are expanded uncertainties.

Columns and labels:
[1] = 298.15 K; 101.33 kPa; Liquid; Vibrating tube method
[2] = refractive index (Na D-line) (dimensionless); conditions: 298.15 K; 101.33 kPa; Liquid; Standard Abbe refractometry
[3] = excess molar enthalpy (molar enthalpy of mixing); xn = mol fraction of the nth substance listed; conditions: 298 K, 81.5 kPa, Liquid, Isoperibol calorimetry

`CCC(C)O` (stereo not drawn) [butan-2-ol] gave a mass density [1] of 802.48 ± 1 kg/m3 and a refractive index [2] of 1.39551 ± 0.00037.
For `O=[N+]([O-])c1ccccc1` [nitrobenzene] + CCO, the excess molar enthalpy ([3]; x1 = 0.0997) was 0.112 ± 0.00153 kcal/mol, the excess molar enthalpy ([3]; x1 = 0.1991) was 0.201 ± 0.00263 kcal/mol and the excess molar enthalpy ([3]; x1 = 0.2988) was 0.264 ± 0.00335 kcal/mol. For the same molecule, the excess molar enthalpy ([3]; x1 = 0.4003) was 0.307 ± 0.00382 kcal/mol, the excess molar enthalpy ([3]; x1 = 0.4899) was 0.342 ± 0.0043 kcal/mol and the excess molar enthalpy ([3]; x1 = 0.5905) was 0.355 ± 0.00454 kcal/mol. It also gave an excess molar enthalpy ([3]; x1 = 0.6997) of 0.344 ± 0.0043 kcal/mol, an excess molar enthalpy ([3]; x1 = 0.7999) of 0.304 ± 0.00382 kcal/mol and an excess molar enthalpy ([3]; x1 = 0.8939) of 0.222 ± 0.00287 kcal/mol.
For `O=[N+]([O-])c1ccccc1` [nitrobenzene] + CCCO, the excess molar enthalpy ([3]; x1 = 0.1037) was 0.169 ± 0.00222 kcal/mol, the excess molar enthalpy ([3]; x1 = 0.2036) was 0.288 ± 0.00359 kcal/mol and the excess molar enthalpy ([3]; x1 = 0.3063) was 0.364 ± 0.00454 kcal/mol. For the same molecule, the excess molar enthalpy ([3]; x1 = 0.4034) was 0.409 ± 0.00502 kcal/mol, the excess molar enthalpy ([3]; x1 = 0.4956) was 0.432 ± 0.0055 kcal/mol and the excess molar enthalpy ([3]; x1 = 0.4993) was 0.432 ± 0.0055 kcal/mol. For the same molecule, the excess molar enthalpy ([3]; x1 = 0.593) was 0.43 ± 0.00526 kcal/mol, the excess molar enthalpy ([3]; x1 = 0.6975) was 0.408 ± 0.00502 kcal/mol and the excess molar enthalpy ([3]; x1 = 0.7978) was 0.351 ± 0.0043 kcal/mol. It also gave an excess molar enthalpy ([3]; x1 = 0.9025) of 0.242 ± 0.00311 kcal/mol.
`CCCO` [propan-1-ol] gave a mass density [1] of 799.56 ± 1 kg/m3 and a refractive index [2] of 1.38361 ± 0.00031.
Work on `CC(C)O` [propan-2-ol] yielded a mass density [1] of 780.9 ± 1 kg/m3 and a refractive index [2] of 1.37518 ± 0.00033.
With `CCO` [ethanol] the mass density [1] was 784.9 ± 1 kg/m3 and the refractive index [2] was 1.35961 ± 0.00031.
`O=[N+]([O-])c1ccccc1` [nitrobenzene] showed a mass density [1] of 1198.12 ± 1.1 kg/m3 and a refractive index [2] of 1.55004 ± 0.00037.
With `O=[N+]([O-])c1ccccc1` [nitrobenzene] + CC(C)O the excess molar enthalpy ([3]; x1 = 0.1038) was 0.208 ± 0.00263 kcal/mol, the excess molar enthalpy ([3]; x1 = 0.2065) was 0.339 ± 0.0043 kcal/mol and the excess molar enthalpy ([3]; x1 = 0.306) was 0.42 ± 0.00526 kcal/mol. The excess molar enthalpy ([3]; x1 = 0.3954) was 0.466 ± 0.00574 kcal/mol, the excess molar enthalpy ([3]; x1 = 0.4911) was 0.488 ± 0.00598 kcal/mol and the excess molar enthalpy ([3]; x1 = 0.5906) was 0.485 ± 0.00598 kcal/mol. The excess molar enthalpy ([3]; x1 = 0.6999) was 0.451 ± 0.00574 kcal/mol, the excess molar enthalpy ([3]; x1 = 0.8042) was 0.381 ± 0.00478 kcal/mol and the excess molar enthalpy ([3]; x1 = 0.8996) was 0.264 ± 0.00335 kcal/mol.
In the case of `CCCCO` [butan-1-ol], the mass density [1] is reported as 805.79 ± 1 kg/m3 and the refractive index [2] is reported as 1.39734 ± 0.00031.
Molecule `O=[N+]([O-])c1ccccc1` [nitrobenzene] + CCC(C)O has an excess molar enthalpy ([3]; x1 = 0.1035) of 0.262 ± 0.00335 kcal/mol, an excess molar enthalpy ([3]; x1 = 0.2049) of 0.424 ± 0.00526 kcal/mol and an excess molar enthalpy ([3]; x1 = 0.3065) of 0.528 ± 0.00669 kcal/mol. The excess molar enthalpy ([3]; x1 = 0.4088) was 0.579 ± 0.00717 kcal/mol, the excess molar enthalpy ([3]; x1 = 0.5111) was 0.592 ± 0.00741 kcal/mol and the excess molar enthalpy ([3]; x1 = 0.6117) was 0.568 ± 0.00693 kcal/mol. It also gave an excess molar enthalpy ([3]; x1 = 0.6988) of 0.534 ± 0.00669 kcal/mol, an excess molar enthalpy ([3]; x1 = 0.7988) of 0.448 ± 0.0055 kcal/mol and an excess molar enthalpy ([3]; x1 = 0.8981) of 0.292 ± 0.00382 kcal/mol.
For `O=[N+]([O-])c1ccccc1` [nitrobenzene] + CCCCO, the excess molar enthalpy ([3]; x1 = 0.1116) was 0.184 ± 0.00239 kcal/mol, the excess molar enthalpy ([3]; x1 = 0.2145) was 0.31 ± 0.00382 kcal/mol and the excess molar enthalpy ([3]; x1 = 0.3183) was 0.398 ± 0.00502 kcal/mol. The excess molar enthalpy ([3]; x1 = 0.4126) was 0.448 ± 0.0055 kcal/mol, the excess molar enthalpy ([3]; x1 = 0.5133) was 0.464 ± 0.00574 kcal/mol and the excess molar enthalpy ([3]; x1 = 0.61) was 0.466 ± 0.00574 kcal/mol. For the same molecule, the excess molar enthalpy ([3]; x1 = 0.6849) was 0.449 ± 0.0055 kcal/mol, the excess molar enthalpy ([3]; x1 = 0.7953) was 0.391 ± 0.00502 kcal/mol and the excess molar enthalpy ([3]; x1 = 0.8987) was 0.262 ± 0.00335 kcal/mol.
